Experimental data as given in paper PMC11671526, “β-caryophyllene sensitizes hepatocellular carcinoma cells to chemotherapeutics and inhibits cell malignancy through targeting MAPK signaling pathway” (Frontiers in Pharmacology, 2024).
Like-named read-outs stand apart in the source and are kept apart here.

Key:
Type in all cases: cell-based, human
[1] = system: HL-7702 normal liver cells; experiment: CCK8 cell viability assay; conditions: for IC50: HL-7702, 48 h, individual treatment, read-out: IC50 (half maximal inhibitory concentration); for effect of combination with BCP (isobologram analysis): HL-7702, BCP 25-150 μM combined with DOX or DDP
Experimental: (§1) Cell viability assay using the CCK8 reagent (Bimake, Shanghai, China) was conducted according to the manufacturer’s instructions. The cell proliferation data were used to calculate the cell viability. Briefly, HepG2, SMMC-7721, and HL-7702 cells with a density of 5 × 10^3 cells/well were seeded into each well of 96-well plates and incubated overnight. […] After 48 h, 10 µL of CCK8 reagent was added to each well, followed by 2 h incubation at 37°C and measurement of absorbance at 450 nm using a microplate reader (Molecular Devices, LLC.). […] The effects of the combinatorial inhibition were visualized by isobologram analyses ([Tallarida, 2001]). […] A line was drawn to link the two IC50 points. […] The dots above, on, or below the line indicate the “antagonistic,” “additive” and “synergistic” effects, respectively. The same method was used to obtain the CI value for the cotreatment of BCP and DDP.

SMMC-7721 cells [2] = experiment: CCK8 cell viability assay; conditions: for IC50: SMMC-7721, 48 h, individual treatment, read-out: IC50 (half maximal inhibitory concentration); for effect of combination with BCP (isobologram analysis): SMMC-7721, BCP 25-150 μM combined with DOX or DDP
Experimental: as §1

HepG2 cells [3] = experiment: CCK8 cell viability assay; conditions: for IC50: HepG2, 48 h, individual treatment, read-out: IC50 (half maximal inhibitory concentration); for effect of combination with BCP (isobologram analysis): HepG2, BCP 25-150 μM combined with DOX or DDP
Experimental: as §1

HL-7702 cells = experiment: Annexin V-FITC/PI cell apoptosis assay (flow cytometry); conditions: HL-7702, 48 h, BCP 150 µM, DOXL 0.2 µM, DOXH 1.5 µM, DDPL 5 µM, DDPH 30 µM
Experimental: (§2) The cell apoptosis assay was performed as previously described ([Zhong et al., 2019]; [Farooq et al., 2023]). […] Ltd., Nanjing, China). The cells were analyzed using flow cytometer (BECKMAN COULTER, cytoFLEX, United States).

SMMC-7721 cells [4] = experiment: as above; conditions: SMMC-7721, 48 h; BCP 150 µM, DOXL 0.2 µM, DOXH 1.5 µM, DDPL 5 µM, DDPH 30 µM
Experimental: as §2

HepG2 cells [5] = experiment: as above; conditions: HepG2, 48 h; BCP 150 µM, DOXL 0.2 µM, DOXH 1.5 µM, DDPL 5 µM, DDPH 30 µM
Experimental: as §2

[6] = SMMC-7721, cotreatment with 25 μM BCP
[7] = SMMC-7721, cotreatment with 50 μM BCP
[8] = SMMC-7721, cotreatment with 75 μM BCP
[9] = SMMC-7721, cotreatment with 100 μM BCP
[10] = SMMC-7721, cotreatment with 150 μM BCP
[11] = HepG2, cotreatment with 25 μM BCP
[12] = HepG2, cotreatment with 50 μM BCP
[13] = HepG2, cotreatment with 75 μM BCP
[14] = HepG2, cotreatment with 100 μM BCP
[15] = HepG2, cotreatment with 150 μM BCP

## N.N.[Cl][Pt][Cl] [DDP, cisplatin]
[1]
  IC50: 11.5 ± 0.82 µM
  effect of combination with BCP (isobologram analysis): additive
[1]; HL-7702, cotreatment with 25 μM BCP
  combination index (CI): 1.04
[1]; HL-7702, cotreatment with 50 μM BCP
  combination index (CI): 0.95
[1]; HL-7702, cotreatment with 75 μM BCP
  combination index (CI): 1.01
[1]; HL-7702, cotreatment with 100 μM BCP
  combination index (CI): 0.89
[1]; HL-7702, cotreatment with 150 μM BCP
  combination index (CI): 0.92
[1]; HL-7702, cotreatment with 150 μM BCP vs DOX or DDP alone
  fold reduction of IC50 in cotreatment from individual treatment: less than 1.5 fold
SMMC-7721 cells [2]
  IC50: 33.7 ± 1.43 µM
  effect of combination with BCP (isobologram analysis): synergistic
SMMC-7721 cells [2]; [6]
  combination index (CI): 0.59
SMMC-7721 cells [2]; [7]
  combination index (CI): 0.57
SMMC-7721 cells [2]; [8]
  combination index (CI): 0.52
SMMC-7721 cells [2]; [9]
  combination index (CI): 0.51
SMMC-7721 cells [2]; [10]
  combination index (CI): 0.58
SMMC-7721 cells [2]; SMMC-7721, cotreatment with 150 μM BCP vs DOX or DDP alone
  fold lower IC50 in cotreatment than in treatment alone: over 9 fold
HepG2 cells [3]
  IC50: 27.4 ± 2.59 µM
  effect of combination with BCP (isobologram analysis): synergistic
HepG2 cells [3]; [11]
  combination index (CI): 0.74
HepG2 cells [3]; [12]
  combination index (CI): 0.71
HepG2 cells [3]; [13]
  combination index (CI): 0.66
HepG2 cells [3]; [14]
  combination index (CI): 0.68
HepG2 cells [3]; [15]
  combination index (CI): 0.88
HepG2 cells [3]; HepG2, cotreatment with 150 μM BCP vs DOX or DDP alone
  fold lower IC50 in cotreatment than in treatment alone: over 9 fold
HL-7702 cells; listed as DDPH
  apoptotic rate: 28.52% ± 1%
HL-7702 cells; listed as DDPL
  apoptotic rate: 17.86% ± 0.69%
SMMC-7721 cells [4]
  apoptotic rate: 7.67% ± 0.46%
HepG2 cells [5]
  apoptotic rate: 11.40% ± 0.52%

## COc1cccc2c1C(=O)c1c(O)c3c(c(O)c1C2=O)C[C@@](O)(C(=O)CO)C[C@@H]3O[C@H]1C[C@H](N)[C@H](O)[C@H](C)O1 [DOX, doxorubicin]
[1]
  effect of combination with BCP (isobologram analysis): additive
[1]; Homo sapiens, L02
  IC50: 0.82 ± 0.09 µM
SMMC-7721 cells [2]; Homo sapiens
  IC50: 1.76 ± 0.13 µM
SMMC-7721 cells [2]
  effect of combination with BCP (isobologram analysis): synergistic
SMMC-7721 cells [2]; [6]
  combination index (CI): 0.48
SMMC-7721 cells [2]; [7]
  combination index (CI): 0.53
SMMC-7721 cells [2]; [8]
  combination index (CI): 0.50
SMMC-7721 cells [2]; [9]
  combination index (CI): 0.55
SMMC-7721 cells [2]; [10]
  combination index (CI): 0.65
HepG2 cells [3]
  effect of combination with BCP (isobologram analysis): synergistic
HepG2 cells [3]; [11]
  combination index (CI): 0.53
HepG2 cells [3]; [12]
  combination index (CI): 0.58
HepG2 cells [3]; [13]
  combination index (CI): 0.56
HepG2 cells [3]; [14]
  combination index (CI): 0.65
HepG2 cells [3]; [15]
  combination index (CI): 0.85
HepG2 cells [3]; Homo sapiens
  IC50: 1.99 ± 0.2 µM
HL-7702 cells; listed as DOXH
  apoptotic rate: 33.83% ± 1.27%
HL-7702 cells; listed as DOXL
  apoptotic rate: 13.04% ± 0.57%
SMMC-7721 cells [4]
  apoptotic rate: 8.74% ± 1.32%
HepG2 cells [5]
  apoptotic rate: 13.40% ± 0.65%
